{"source": "patent US20210238169A1", "about": "“PROCESS FOR PREPARING A COMPOUND OF FORMULA (XIII)” (PULMOCIDE LIMITED, priority 2014, published 2021)", "key": {"[1]": {"system": "Aspergillus fumigatus (ATCC 13073)", "assay": "IL-6 and TNFα levels in serum of Aspergillus fumigatus infected mice", "type": "in vivo", "description": "(§1) Aspergillus fumigatus (ATCC 13073 [strain: NIH 5233], American Type Culture Collection, Manassas, Va., USA) was grown on Malt agar (Nissui Pharmaceutical, Tokyo, Japan) plates for 6-7 days at RT (24±1° C.). Spores were aseptically dislodged from the agar plates and suspended in sterile distilled water with 0.05% Tween 80 and 0.1% agar. On the day of infection, spore counts were assessed by haemocytometer and the inoculum was adjusted to obtain a concentration of 1.67×10^8 spores mL^−1 of physiological saline.\n(§2) On day 0, animals were infected with the spore suspension (35 μL intra-nasally).\nTest compounds were administered intra-nasally ([…]) once daily, 30 min before infection on day 0 and then on days 1, 2 and 3 (representing prophylactic treatment) or on days 1, 2 and 3 only (representing therapeutic treatment). For extended prophylactic treatment, test compounds (35 μL of a suspension of 0.0032 or 0.016 mg/mL in physiological saline) were administered intra-nasally once daily for seven days; then 30 min before infection on day 0, and thereafter, either on days 1, 2 and 3 after infection, or on day 0 only. The effects of these treatment paradigms were compared with those obtained when treatment was restricted to one day and 30 min before inoculation and then on days 1, 2 and 3 post infection; or reduced still further to one day and 30 min before infection only.\n(§3) Six hours after the last dose, animals were anesthetised, the trachea was cannulated and BALF was collected. The total number of alveolar cells was determined using a haemocytometer, and the numbers of alveolar macrophages and neutrophils were determined by FACS analysis (EPICS® ALTRA II, Beckman Coulter, Inc., Fullerton, Calif., USA) using anti-mouse MOMA2-FITC (macrophage) or anti-mouse 7/4 (neutrophil), respectively, as previously reported (Kimura et al., 2013). The levels of IFN-γ and IL-17 in BALF, and IL-6 and TNFα in serum were determined using Quantikine® mouse IFN-γ, IL-17, IL-6 or TNF-α ELISA kit (R&D systems, Inc., Minneapolis, Minn., USA) respectively. MDA, an oxidative stress marker, was assayed using OxiSelect® TBARS Assay Kits (MDA Quantitation; Cell Biolabs Inc, San Diego, Calif., USA). Aspergillus GM in serum was determination using Platelia GM-EIA kits (Bio-Rad Laboratories, Redmond, Wash., USA). Cut-off index was calculated by the formula: Cut-off index=OD in sample/OD in cut-off control provided in kit. For tissue fungal load assays, 100 mg of lung tissue was removed aseptically and homogenized in 0.2 mL of 0.1% agar in sterile distilled water. Serially diluted lung homogenates were plated on Malt agar plates (50 μL/plate), and incubated at 24±1° C. for 72 to 96 h. The colonies of A. fumigatus on each plate was counted and the fungal titre presented as CFU per gram of lung tissue."}, "[2]": {"system": "Aspergillus fumigatus (ATCC 13073)", "assay": "Extended prophylactic dosing: CFU in lung and GM in BALF and serum", "type": "in vivo, mice", "description": "as §1, §2\nTest compounds were administered intra-nasally (35 μL of a suspension of 0.08-2.00 mg/mL in physiological saline) once daily, 30 min before infection on day 0 and then on days 1, 2 and 3 (representing prophylactic treatment) or on days 1, 2 and 3 only (representing therapeutic treatment). For extended prophylactic treatment, test compounds (35 μL of a suspension of 0.0032 or 0.016 mg/mL in physiological saline) were administered intra-nasally once daily for seven days; then 30 min before infection on day 0, and thereafter, either on days 1, 2 and 3 after infection, or on day 0 only. The effects of these treatment paradigms were compared with those obtained when treatment was restricted to one day and 30 min before inoculation and then on days 1, 2 and 3 post infection; or reduced still further to one day and 30 min before infection only.\nas §3"}, "[3]": {"settings": "Prophylactic Treatment, 0.08 mg/mL intra-nasally"}, "[4]": {"settings": "Prophylactic Treatment, 0.4 mg/mL intra-nasally"}, "[5]": {"settings": "Prophylactic Treatment, 2 mg/mL intra-nasally"}, "[6]": {"settings": "Therapeutic Treatment, 0.4 mg/mL intra-nasally"}, "[7]": {"settings": "Therapeutic Treatment, 2 mg/mL intra-nasally"}, "[8]": {"settings": "Therapeutic Treatment, 10 mg/mL intra-nasally"}, "[9]": {"settings": "days dosed −1, 0, 16 μg/mL intra-nasally"}, "[10]": {"settings": "days dosed −1 to +3, 3.2 μg/mL intra-nasally"}, "[11]": {"settings": "days dosed −1 to +3, 16 μg/mL intra-nasally"}, "[12]": {"settings": "days dosed −7 to 0, 16 μg/mL intra-nasally"}, "[13]": {"settings": "days dosed −7 to +3, 3.2 μg/mL intra-nasally"}, "[14]": {"settings": "days dosed −7 to +3, 16 μg/mL intra-nasally"}}}
{"smiles": "Cc1cc(N2CCN(c3ccc(C(=O)Nc4ccc(F)cc4)cc3)CC2)ccc1OC[C@@H]1CO[C@@](Cn2cncn2)(c2ccc(F)cc2F)C1", "note": "[Compound (I), 4-(4-(4-(((3R,5R)-5-((1H-1,2,4-triazol-1-yl)methyl)-5-(2,4-difluorophenyl)tetrahydrofuran-3-yl)methoxy)-3-methylphenyl)piperazin-1-yl)-N-(4-fluorophenyl)benzamide]", "values": [{"measurement": "IL-6 concentration in serum", "setting": "[1]; [3]", "result": "159 ± 73.3", "unit": "pg/mL"}, {"measurement": "IL-6 in serum, % Inhibition", "setting": "[1]; [3]", "result": 44, "unit": "%"}, {"measurement": "TNFα concentration in serum", "setting": "[1]; [3]", "result": "11.8 ± 5.9", "unit": "pg/mL"}, {"measurement": "TNFα in serum, % Inhibition", "setting": "[1]; [3]", "result": 54, "unit": "%"}, {"measurement": "IL-6 concentration in serum", "setting": "[1]; [4]", "result": "86.3 ± 46.9", "unit": "pg/mL"}, {"measurement": "IL-6 in serum, % Inhibition", "setting": "[1]; [4]", "result": 70, "unit": "%"}, {"measurement": "TNFα concentration in serum", "setting": "[1]; [4]", "result": "7.3 ± 3.5", "unit": "pg/mL"}, {"measurement": "TNFα in serum, % Inhibition", "setting": "[1]; [4]", "result": 71, "unit": "%"}, {"measurement": "IL-6 concentration in serum", "setting": "[1]; [5]", "result": "44.5 ± 12.2", "unit": "pg/mL"}, {"measurement": "IL-6 in serum, % Inhibition", "setting": "[1]; [5]", "result": 84, "unit": "%"}, {"measurement": "TNFα concentration in serum", "setting": "[1]; [5]", "result": "4.7 ± 0.4", "unit": "pg/mL"}, {"measurement": "TNFα in serum, % Inhibition", "setting": "[1]; [5]", "result": 82, "unit": "%"}, {"measurement": "IL-6 concentration in serum", "setting": "[1]; [6]", "result": "51.7 ± 16.8", "unit": "pg/mL"}, {"measurement": "IL-6 in serum, % Inhibition", "setting": "[1]; [6]", "result": 82, "unit": "%"}, {"measurement": "TNFα concentration in serum", "setting": "[1]; [6]", "result": "6.2 ± 0.5", "unit": "pg/mL"}, {"measurement": "TNFα in serum, % Inhibition", "setting": "[1]; [6]", "result": 76, "unit": "%"}, {"measurement": "IL-6 concentration in serum", "setting": "[1]; [7]", "result": "44.2 ± 11.4", "unit": "pg/mL"}, {"measurement": "IL-6 in serum, % Inhibition", "setting": "[1]; [7]", "result": 84, "unit": "%"}, {"measurement": "TNFα concentration in serum", "setting": "[1]; [7]", "result": "5.5 ± 0.7", "unit": "pg/mL"}, {"measurement": "TNFα in serum, % Inhibition", "setting": "[1]; [7]", "result": 79, "unit": "%"}, {"measurement": "IL-6 concentration in serum", "setting": "[1]; [8]", "result": "35.9 ± 10.4", "unit": "pg/mL"}, {"measurement": "IL-6 in serum, % Inhibition", "setting": "[1]; [8]", "result": 87, "unit": "%"}, {"measurement": "TNFα concentration in serum", "setting": "[1]; [8]", "result": "4.9 ± 0.6", "unit": "pg/mL"}, {"measurement": "TNFα in serum, % Inhibition", "setting": "[1]; [8]", "result": 81, "unit": "%"}, {"measurement": "CFU in lung", "setting": "[2]; [9]", "result": "13.1 ± 2.6 /mg of lung"}, {"measurement": "CFU in lung, % inhibition", "setting": "[2]; [9]", "result": 62, "unit": "%"}, {"measurement": "GM in BALF", "setting": "[2]; [9]", "result": "4.5 ± 0.50", "unit": "COI"}, {"measurement": "GM in BALF, % inhibition", "setting": "[2]; [9]", "result": 12, "unit": "%"}, {"measurement": "GM in serum", "setting": "[2]; [9]", "result": "4.0 ± 0.88", "unit": "COI"}, {"measurement": "GM in serum, % inhibition", "setting": "[2]; [9]", "result": 7, "unit": "%"}, {"measurement": "CFU in lung", "setting": "[2]; [10]", "result": "9.5 ± 3.3 /mg of lung"}, {"measurement": "CFU in lung, % inhibition", "setting": "[2]; [10]", "result": 73, "unit": "%"}, {"measurement": "GM in BALF", "setting": "[2]; [10]", "result": "2.8 ± 0.71", "unit": "COI"}, {"measurement": "GM in BALF, % inhibition", "setting": "[2]; [10]", "result": 45, "unit": "%"}, {"measurement": "GM in serum", "setting": "[2]; [10]", "result": "2.2 ± 0.69", "unit": "COI"}, {"measurement": "GM in serum, % inhibition", "setting": "[2]; [10]", "result": 49, "unit": "%"}, {"measurement": "CFU in lung", "setting": "[2]; [11]", "result": "6.1 ± 2.8 /mg of lung"}, {"measurement": "CFU in lung, % inhibition", "setting": "[2]; [11]", "result": 82, "unit": "%"}, {"measurement": "GM in BALF", "setting": "[2]; [11]", "result": "2.2 ± 0.61", "unit": "COI"}, {"measurement": "GM in BALF, % inhibition", "setting": "[2]; [11]", "result": 57, "unit": "%"}, {"measurement": "GM in serum", "setting": "[2]; [11]", "result": "1.6 ± 0.41", "unit": "COI"}, {"measurement": "GM in serum, % inhibition", "setting": "[2]; [11]", "result": 63, "unit": "%"}, {"measurement": "CFU in lung", "setting": "[2]; [12]", "result": "6.7 ± 1.7 /mg of lung"}, {"measurement": "CFU in lung, % inhibition", "setting": "[2]; [12]", "result": 81, "unit": "%"}, {"measurement": "GM in BALF", "setting": "[2]; [12]", "result": "2.3 ± 0.52", "unit": "COI"}, {"measurement": "GM in BALF, % inhibition", "setting": "[2]; [12]", "result": 55, "unit": "%"}, {"measurement": "GM in serum", "setting": "[2]; [12]", "result": "1.7 ± 0.59", "unit": "COI"}, {"measurement": "GM in serum, % inhibition", "setting": "[2]; [12]", "result": 60, "unit": "%"}, {"measurement": "CFU in lung", "setting": "[2]; [13]", "result": "8.3 ± 2.0 /mg of lung"}, {"measurement": "CFU in lung, % inhibition", "setting": "[2]; [13]", "result": 76, "unit": "%"}, {"measurement": "GM in BALF", "setting": "[2]; [13]", "result": "2.6 ± 0.36", "unit": "COI"}, {"measurement": "GM in BALF, % inhibition", "setting": "[2]; [13]", "result": 49, "unit": "%"}, {"measurement": "GM in serum", "setting": "[2]; [13]", "result": "1.8 ± 0.43", "unit": "COI"}, {"measurement": "GM in serum, % inhibition", "setting": "[2]; [13]", "result": 58, "unit": "%"}, {"measurement": "CFU in lung", "setting": "[2]; [14]", "result": "5.0 ± 2.3 /mg of lung"}, {"measurement": "CFU in lung, % inhibition", "setting": "[2]; [14]", "result": 86, "unit": "%"}, {"measurement": "GM in BALF", "setting": "[2]; [14]", "result": "1.7 ± 0.39", "unit": "COI"}, {"measurement": "GM in BALF, % inhibition", "setting": "[2]; [14]", "result": 67, "unit": "%"}, {"measurement": "GM in serum", "setting": "[2]; [14]", "result": "1.4 ± 0.20", "unit": "COI"}, {"measurement": "GM in serum, % inhibition", "setting": "[2]; [14]", "result": 67, "unit": "%"}]}
